Structures are written as SMILES.

For assay [1], the target named is Ephrin type-A receptor 5 (Homo sapiens) (UniProt P54756). Put plainly: Selectivity interaction (KinomeScan (DiscoverX)) EUB0000595a EPHA5. The conditions noted are these: at 10 µM.
The target in assay [2] is Mitogen-activated protein kinase kinase kinase 11 (Homo sapiens) (UniProt Q16584). Put plainly: Selectivity interaction (ActivX KiNativ screen (ex vivo kinase selectivity in human PBMCs)) EUB0001619a MAP3K11. In kind it is cell-based. The settings on record: PBMC, at 1 µM.
The target in the next assay is Histamine H3 receptor (Homo sapiens, UniProt Q9Y5N1). The assay is described as follows: Selectivity interaction (Eurofins CEREP Diversity Profile (receptors and ion channels)) EUB0000279b HRH3. The conditions noted are these: at 10 µM.
For assay [3], the target named is Cyclin-dependent kinase 9 (Homo sapiens, UniProt P50750). The settings on record: at 10 µM.
In assay [4] the target is Cyclin-dependent kinase 18 (Homo sapiens) (UniProt Q07002). The assay is described as follows: Selectivity interaction (KinomeScan (DiscoverX)) EUB0000695a CDK18. The conditions noted are these: at 100 nM.
For assay [5], the target named is Microtubule-associated serine/threonine-protein kinase 1 (Homo sapiens) (UniProt Q9Y2H9). The assay is described as follows: Selectivity interaction (KinomeScan (DiscoverX)) EUB0000666a MAST1. The conditions noted are these: at 10 µM.
Assay [6] deals with T1, Calcium/calmodulin-dependent protein kinase type IV (Homo sapiens) (UniProt Q16566).
T1 sequence (whole entry): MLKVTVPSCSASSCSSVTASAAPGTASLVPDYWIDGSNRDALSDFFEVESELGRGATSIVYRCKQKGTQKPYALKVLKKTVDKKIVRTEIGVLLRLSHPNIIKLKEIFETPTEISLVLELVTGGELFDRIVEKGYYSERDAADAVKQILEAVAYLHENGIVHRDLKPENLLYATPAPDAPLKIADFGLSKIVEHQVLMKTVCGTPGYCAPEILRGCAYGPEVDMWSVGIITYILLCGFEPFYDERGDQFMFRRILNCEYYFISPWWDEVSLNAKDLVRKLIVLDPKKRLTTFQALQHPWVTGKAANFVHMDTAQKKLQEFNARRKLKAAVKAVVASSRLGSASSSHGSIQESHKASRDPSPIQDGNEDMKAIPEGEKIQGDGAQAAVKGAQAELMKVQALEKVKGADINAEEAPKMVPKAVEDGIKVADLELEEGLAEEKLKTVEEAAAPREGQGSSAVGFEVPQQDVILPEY
Put plainly: Selectivity interaction (KinomeScan (DiscoverX)) EUB0000607a CAMK4. The conditions noted are these: at 10 µM.

The next assay concerns the target Aurora kinase B (Homo sapiens, UniProt Q96GD4). Put plainly: Selectivity interaction (KinomeScan (DiscoverX)) EUB0001550a AURKB. The settings on record: at 1 µM.
The next assay addresses Misshapen-like kinase 1 (Homo sapiens, UniProt Q8N4C8). The conditions noted are these: at 10 µM.
In assay [7] the target is Activin receptor type-2B (Homo sapiens) (UniProt Q13705). The conditions noted are these: at 10 µM.
For assay [8], the target named is T2, Aurora kinase A (Homo sapiens) (UniProt O14965).
T2 sequence (whole entry): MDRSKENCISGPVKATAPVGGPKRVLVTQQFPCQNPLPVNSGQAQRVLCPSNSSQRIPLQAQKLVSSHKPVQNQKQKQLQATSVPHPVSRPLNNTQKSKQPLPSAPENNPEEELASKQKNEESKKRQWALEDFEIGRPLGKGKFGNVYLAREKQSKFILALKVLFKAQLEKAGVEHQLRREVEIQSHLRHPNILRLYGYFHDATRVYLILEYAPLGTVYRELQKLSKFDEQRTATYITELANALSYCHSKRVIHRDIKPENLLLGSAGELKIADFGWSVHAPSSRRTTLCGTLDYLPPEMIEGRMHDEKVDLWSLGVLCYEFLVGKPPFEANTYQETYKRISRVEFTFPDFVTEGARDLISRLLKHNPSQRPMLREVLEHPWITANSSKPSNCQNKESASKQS
Put plainly: Selectivity interaction (ActivX KiNativ screen (kinase selectivity in THP-1 cell lysates)) EUB0000639a STK6. Format: subcellular. The conditions noted are these: lysate, at 1 µM.

Assay [9] concerns the target Receptor tyrosine-protein kinase erbB-3 (Homo sapiens) (UniProt P21860). The assay is described as follows: Selectivity interaction (KinomeScan (DiscoverX)) EUB0000045b ERBB3.
The target of assay [10] is T3, Mitogen-activated protein kinase kinase kinase 2 (Homo sapiens) (UniProt Q9Y2U5).
T3 sequence (whole entry): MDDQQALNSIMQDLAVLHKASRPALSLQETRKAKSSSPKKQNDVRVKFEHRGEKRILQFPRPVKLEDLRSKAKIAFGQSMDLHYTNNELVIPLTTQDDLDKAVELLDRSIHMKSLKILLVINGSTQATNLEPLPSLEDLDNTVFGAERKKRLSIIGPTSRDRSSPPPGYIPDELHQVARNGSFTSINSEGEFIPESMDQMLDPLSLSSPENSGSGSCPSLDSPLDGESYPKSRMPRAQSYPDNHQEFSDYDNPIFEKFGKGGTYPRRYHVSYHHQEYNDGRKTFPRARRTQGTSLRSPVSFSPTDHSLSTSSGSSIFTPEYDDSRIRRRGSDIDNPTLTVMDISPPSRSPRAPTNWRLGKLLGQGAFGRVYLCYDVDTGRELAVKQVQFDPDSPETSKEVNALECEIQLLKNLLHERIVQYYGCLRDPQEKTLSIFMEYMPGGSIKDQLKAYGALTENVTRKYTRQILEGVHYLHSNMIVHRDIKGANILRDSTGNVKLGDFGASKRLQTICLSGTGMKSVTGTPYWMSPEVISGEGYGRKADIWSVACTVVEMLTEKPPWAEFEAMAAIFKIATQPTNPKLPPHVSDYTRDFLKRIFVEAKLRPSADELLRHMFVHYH
Put plainly: Selectivity interaction (KinomeScan (DiscoverX)) EUB0001049a MAP3K2. The settings on record: at 1 µM.

The target of assay [11] is Phosphatidylinositol 4-phosphate 5-kinase type-1 alpha (Homo sapiens) (UniProt Q99755). Put plainly: Selectivity interaction (KinomeScan (DiscoverX)) EUB0000655a PIP5K1A. The conditions noted are these: at 10 µM.
The target of assay [12] is RAC-beta serine/threonine-protein kinase (Homo sapiens) (UniProt P31751). Put plainly: Selectivity interaction (KinomeScan (DiscoverX)) EUB0000092b AKT2. The settings on record: at 10 µM.
In assay [13] the target is Citron Rho-interacting kinase (Homo sapiens) (UniProt O14578). Put plainly: Selectivity interaction (KinomeScan (DiscoverX)) EUB0000229b CIT. The settings on record: at 10 µM.
Sequence of Citron Rho-interacting kinase (Homo sapiens) (O14578 whole entry): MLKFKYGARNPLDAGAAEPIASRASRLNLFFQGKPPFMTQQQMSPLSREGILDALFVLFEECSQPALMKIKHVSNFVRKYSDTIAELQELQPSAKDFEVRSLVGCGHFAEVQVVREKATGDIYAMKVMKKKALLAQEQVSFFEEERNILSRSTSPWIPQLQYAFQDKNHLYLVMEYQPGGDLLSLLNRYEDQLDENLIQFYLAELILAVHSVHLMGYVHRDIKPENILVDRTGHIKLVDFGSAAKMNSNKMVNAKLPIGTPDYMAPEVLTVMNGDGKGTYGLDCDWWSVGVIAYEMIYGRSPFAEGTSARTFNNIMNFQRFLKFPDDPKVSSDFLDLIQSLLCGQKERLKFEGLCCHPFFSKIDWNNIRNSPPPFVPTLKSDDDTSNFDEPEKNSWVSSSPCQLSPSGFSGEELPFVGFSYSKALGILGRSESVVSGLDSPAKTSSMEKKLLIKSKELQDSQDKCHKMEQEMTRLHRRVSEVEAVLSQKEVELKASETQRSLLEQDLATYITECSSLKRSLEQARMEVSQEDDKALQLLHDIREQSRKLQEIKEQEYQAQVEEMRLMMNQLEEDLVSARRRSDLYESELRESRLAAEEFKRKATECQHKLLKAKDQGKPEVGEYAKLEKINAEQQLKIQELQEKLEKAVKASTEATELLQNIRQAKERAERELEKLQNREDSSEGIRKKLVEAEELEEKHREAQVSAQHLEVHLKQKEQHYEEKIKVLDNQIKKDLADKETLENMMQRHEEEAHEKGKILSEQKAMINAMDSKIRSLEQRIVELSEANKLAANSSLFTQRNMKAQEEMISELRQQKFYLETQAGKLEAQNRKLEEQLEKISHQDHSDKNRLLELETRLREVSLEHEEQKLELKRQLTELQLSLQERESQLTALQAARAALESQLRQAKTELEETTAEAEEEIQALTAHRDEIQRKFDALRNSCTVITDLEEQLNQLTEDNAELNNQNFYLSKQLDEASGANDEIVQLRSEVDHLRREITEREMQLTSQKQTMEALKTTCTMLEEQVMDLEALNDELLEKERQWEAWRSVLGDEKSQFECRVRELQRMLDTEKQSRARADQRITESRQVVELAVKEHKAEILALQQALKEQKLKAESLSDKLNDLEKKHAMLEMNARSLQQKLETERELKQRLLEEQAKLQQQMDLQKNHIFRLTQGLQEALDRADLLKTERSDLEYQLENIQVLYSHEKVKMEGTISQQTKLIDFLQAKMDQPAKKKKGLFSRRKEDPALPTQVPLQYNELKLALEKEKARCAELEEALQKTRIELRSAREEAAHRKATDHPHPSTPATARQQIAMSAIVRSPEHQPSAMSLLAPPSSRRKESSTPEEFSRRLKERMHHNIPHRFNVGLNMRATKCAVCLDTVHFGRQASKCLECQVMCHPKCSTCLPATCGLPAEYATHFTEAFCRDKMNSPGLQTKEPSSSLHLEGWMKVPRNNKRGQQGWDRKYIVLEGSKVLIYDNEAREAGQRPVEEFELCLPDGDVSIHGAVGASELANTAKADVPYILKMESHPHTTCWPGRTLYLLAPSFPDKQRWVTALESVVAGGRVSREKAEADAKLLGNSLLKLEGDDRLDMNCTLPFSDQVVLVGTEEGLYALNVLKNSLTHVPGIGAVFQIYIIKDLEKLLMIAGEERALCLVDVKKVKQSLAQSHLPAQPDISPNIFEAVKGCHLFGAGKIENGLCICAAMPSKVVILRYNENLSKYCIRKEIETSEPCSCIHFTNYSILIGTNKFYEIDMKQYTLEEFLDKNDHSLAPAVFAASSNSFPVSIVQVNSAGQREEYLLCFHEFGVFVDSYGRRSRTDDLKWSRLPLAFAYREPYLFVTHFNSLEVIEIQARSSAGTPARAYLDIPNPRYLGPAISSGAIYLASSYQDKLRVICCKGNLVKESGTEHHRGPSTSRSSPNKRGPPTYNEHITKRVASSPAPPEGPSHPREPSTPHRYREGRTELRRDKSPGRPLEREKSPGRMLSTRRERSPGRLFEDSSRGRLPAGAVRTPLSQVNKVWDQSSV

Sequence of Receptor tyrosine-protein kinase erbB-3 (Homo sapiens) (P21860 whole entry): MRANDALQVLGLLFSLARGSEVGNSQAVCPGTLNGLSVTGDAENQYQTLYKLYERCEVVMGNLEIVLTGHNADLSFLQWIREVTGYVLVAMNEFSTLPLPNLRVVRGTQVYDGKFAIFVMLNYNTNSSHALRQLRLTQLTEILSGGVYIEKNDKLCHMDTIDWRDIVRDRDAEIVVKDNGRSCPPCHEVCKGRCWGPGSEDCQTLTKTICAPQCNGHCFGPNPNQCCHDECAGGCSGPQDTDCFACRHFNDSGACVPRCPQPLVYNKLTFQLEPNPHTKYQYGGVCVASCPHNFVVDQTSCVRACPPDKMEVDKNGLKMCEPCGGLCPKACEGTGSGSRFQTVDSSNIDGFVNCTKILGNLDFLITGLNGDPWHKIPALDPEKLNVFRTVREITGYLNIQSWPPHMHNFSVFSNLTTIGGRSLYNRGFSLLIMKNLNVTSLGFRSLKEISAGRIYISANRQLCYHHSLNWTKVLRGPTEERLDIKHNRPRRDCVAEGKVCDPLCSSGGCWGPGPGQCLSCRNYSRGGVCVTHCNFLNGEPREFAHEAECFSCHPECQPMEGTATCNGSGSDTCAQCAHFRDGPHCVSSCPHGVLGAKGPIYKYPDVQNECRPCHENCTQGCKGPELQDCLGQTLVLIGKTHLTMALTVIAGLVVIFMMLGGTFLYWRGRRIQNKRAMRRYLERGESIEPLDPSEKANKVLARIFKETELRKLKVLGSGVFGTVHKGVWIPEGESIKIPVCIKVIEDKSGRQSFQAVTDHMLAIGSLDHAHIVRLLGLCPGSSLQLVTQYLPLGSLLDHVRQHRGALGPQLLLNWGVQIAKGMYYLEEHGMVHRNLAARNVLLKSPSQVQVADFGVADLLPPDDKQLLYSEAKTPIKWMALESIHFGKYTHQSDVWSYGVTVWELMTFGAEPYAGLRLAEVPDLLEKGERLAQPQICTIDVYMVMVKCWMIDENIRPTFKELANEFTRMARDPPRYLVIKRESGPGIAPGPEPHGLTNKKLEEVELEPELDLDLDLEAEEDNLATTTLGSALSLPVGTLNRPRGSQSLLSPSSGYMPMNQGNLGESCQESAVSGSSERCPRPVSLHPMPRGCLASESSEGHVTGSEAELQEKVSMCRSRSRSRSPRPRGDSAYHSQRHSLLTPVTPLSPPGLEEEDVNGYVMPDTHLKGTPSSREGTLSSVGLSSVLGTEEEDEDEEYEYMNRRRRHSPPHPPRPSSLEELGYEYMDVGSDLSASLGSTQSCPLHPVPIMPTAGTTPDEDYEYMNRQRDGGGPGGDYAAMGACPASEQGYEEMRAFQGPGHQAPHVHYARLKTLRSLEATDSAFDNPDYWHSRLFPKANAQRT
Sequence of Misshapen-like kinase 1 (Q8N4C8 whole entry, looked up): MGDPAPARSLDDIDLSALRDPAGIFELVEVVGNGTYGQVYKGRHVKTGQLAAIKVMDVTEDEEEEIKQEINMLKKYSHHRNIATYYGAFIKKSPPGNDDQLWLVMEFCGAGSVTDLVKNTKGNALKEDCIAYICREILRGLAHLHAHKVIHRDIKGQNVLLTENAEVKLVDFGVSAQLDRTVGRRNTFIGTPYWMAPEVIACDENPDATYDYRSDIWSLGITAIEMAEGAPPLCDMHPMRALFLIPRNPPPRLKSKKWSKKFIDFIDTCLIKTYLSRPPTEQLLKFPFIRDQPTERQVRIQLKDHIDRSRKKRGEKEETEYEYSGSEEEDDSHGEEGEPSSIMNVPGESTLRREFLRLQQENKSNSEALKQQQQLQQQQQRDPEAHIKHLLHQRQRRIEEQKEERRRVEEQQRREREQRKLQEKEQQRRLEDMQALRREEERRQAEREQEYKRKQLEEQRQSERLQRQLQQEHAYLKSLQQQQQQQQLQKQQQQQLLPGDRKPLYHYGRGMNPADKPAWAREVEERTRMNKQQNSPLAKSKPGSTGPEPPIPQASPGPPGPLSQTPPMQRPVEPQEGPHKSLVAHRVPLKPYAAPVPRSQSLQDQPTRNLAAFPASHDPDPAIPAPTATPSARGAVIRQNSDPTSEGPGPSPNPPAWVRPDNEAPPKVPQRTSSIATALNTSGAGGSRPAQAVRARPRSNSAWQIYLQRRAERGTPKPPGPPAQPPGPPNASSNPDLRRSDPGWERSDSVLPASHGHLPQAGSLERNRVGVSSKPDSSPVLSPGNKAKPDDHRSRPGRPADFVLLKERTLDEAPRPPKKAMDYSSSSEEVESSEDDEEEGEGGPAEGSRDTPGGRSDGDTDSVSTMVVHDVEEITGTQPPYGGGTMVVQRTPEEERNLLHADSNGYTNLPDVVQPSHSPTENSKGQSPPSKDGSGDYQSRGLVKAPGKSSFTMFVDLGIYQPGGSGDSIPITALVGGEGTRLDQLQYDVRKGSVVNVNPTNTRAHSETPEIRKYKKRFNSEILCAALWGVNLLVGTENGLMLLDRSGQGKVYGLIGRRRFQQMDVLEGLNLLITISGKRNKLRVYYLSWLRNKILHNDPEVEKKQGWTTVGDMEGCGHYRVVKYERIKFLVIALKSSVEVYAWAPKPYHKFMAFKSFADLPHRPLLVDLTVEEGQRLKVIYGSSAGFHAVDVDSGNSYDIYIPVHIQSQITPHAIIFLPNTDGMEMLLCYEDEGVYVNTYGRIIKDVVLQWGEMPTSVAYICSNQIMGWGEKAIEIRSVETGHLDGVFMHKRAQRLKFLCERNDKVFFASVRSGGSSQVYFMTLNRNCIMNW
Sequence of Aurora kinase B (Q96GD4 whole entry): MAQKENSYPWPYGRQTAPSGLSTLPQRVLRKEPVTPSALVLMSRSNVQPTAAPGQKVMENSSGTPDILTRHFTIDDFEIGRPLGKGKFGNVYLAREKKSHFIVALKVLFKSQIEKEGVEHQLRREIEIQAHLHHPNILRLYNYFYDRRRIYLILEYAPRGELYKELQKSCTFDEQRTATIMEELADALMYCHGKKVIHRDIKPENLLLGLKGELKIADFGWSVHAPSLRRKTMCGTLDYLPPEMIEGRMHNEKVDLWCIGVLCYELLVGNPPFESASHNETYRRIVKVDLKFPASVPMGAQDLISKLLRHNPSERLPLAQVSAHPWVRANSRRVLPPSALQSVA

Take `COCC(=O)NC/C=C/c1ccc2ncnc(Nc3ccc(Oc4ccc(C)nc4)c(C)c3)c2c1` [CP-724714]: the % of control in [1] worked out at 100%. `N#Cc1cccc(-c2c[nH]c3ncnc(N4CCOCC4)c23)c1` gave a % of inhibition in assay [2] of 20%. Turning to `CC(=O)c1cc(-c2ccccc2OCC2CC2)c2ncccn12`, the % of control on Histamine H3 receptor stood at 105%. The compound `CCN(CC)CCCCNc1ncc2cc(-c3cc(OC)cc(OC)c3)c(NC(=O)NC(C)(C)C)nc2n1` had a % of control in assay [3] of 100%. The compound `Cc1cc(F)c(C(=O)Nc2cccc(-c3nncn3C(C)C)n2)cc1-n1cnc(C2CC2)c1` returned a % of control in assay [4] of 91%.

On to `O=C(NOC[C@H](O)CO)c1ccc(F)c(F)c1Nc1ccc(I)cc1F`, for which the % of control in assay [5] was determined as 100%. With `CNC(=O)Nc1ccc(-c2nc(N3CC4CCC(C3)O4)c3cnn(C4CCC5(CC4)OCCO5)c3n2)cc1`, the % of control in assay [6] was 100%. `CN(C)CC#Cc1ccc2[nH]c3c(c2c1)-c1nc(N)ncc1CCC3`: the % of control at Aurora kinase B stood at 23%. Consider `Cc1cc([C@@H](C)Nc2ccccc2C(=O)O)c2nc(N3CCOCC3)cc(=O)n2c1` [AZD-6482], for which the % of control (at Misshapen-like kinase 1; in assay [7]) was 100% throughout.

In assay [8], `CC[C@@H]1[C@H](F)C(=O)N[C@@H]1COc1nccc2cc(C(N)=O)c(OC)cc12` [ZIMLOVISERTIB] gave a % of inhibition of 9.2%. In the case of `C=CC(=O)Nc1cc(-n2c(=O)ccc3cnc4ccc(-c5ccc(NS(C)(=O)=O)cc5)cc4c32)ccc1C`, the % of control in assay [9] (at 1 µM) and in assay [9] (at 10 µM) was 100% in each case.

`COc1cc(Nc2nc(C)cc(-c3cnn4nc(OC)ccc34)n2)cc(C(F)(F)F)c1` displayed a % of control in assay [10] of 87%. For `CN(C)CCOc1ccc(-c2nc(-c3ccncc3)c(-c3ccc4c(c3)CC/C4=N\O)[nH]2)cc1`, the % of control in [11] was 100%. Take `CCC(=O)N1CCN(c2ccc(-n3c(=O)ccc4cnc5ccc(-c6cnc7ccccc7c6)cc5c43)cc2C(F)(F)F)CC1`: the % of control in assay [12] amounted to 100%.

Compound `COc1cc(N(C)c2ccnc3ccc(C(F)(F)F)cc23)cc(OC)c1OC` showed a % binding in [13] of 93%.

The values are drawn from ChEMBL document CHEMBL5465560, “Selectivity Literature for EUbOPEN Chemogenomic Library” (2024).
